Data reported in patent US8569361B1, “Aliphatic amino acid biosynthesis inhibitors and a method of synthesizing the same” (priority 2012, dated 2013).
In brackets after ≈: the same amount, converted by molar mass.

Columns and labels:
[1] = test system: yeast cells; assay: Reversal assay: amino acids/metabolites reversing the antifungal activity at MIC level; assay type: cell-based, Saccharomyces cerevisiae
Experimental: Performing reversal assay: The reversal assay according to the embodiments herein is performed by the following steps in general: First the yeast strain is grown in presence of minimum inhibitory concentrations of the compounds to be tested. Then different concentrations of amino acids or metabolite intermediates are added to reverse the inhibitory effect of the test compounds. Then again the growth is checked and the minimum concentration of the metabolite or amino acids required for reversing the inhibitory effect is determined.
An experiment was designed for finding the metabolite that reverses the antifungal activity of the test compound.
With respect to FIG. 3, a cell suspension containing 1.5×10^5 yeast/ml was prepared in RPMI medium (1.2×) enriched by 2% glucose. […] 80 μl of this suspension was added to each well of a 96 well micro plate in the second row. Subsequently, two fold dilutions of reversing metabolite were prepared in the first row of the same microplate and 20 μl of each dilution was added to the related well of the second row. The plate was incubated at 30° C. overnight. Following an overnight incubation, the plate was checked for any visible growth of the strain. In case of any growth, the reversing metabolite was considered for further analysis.
In this test, all the amino acids, nucleic acids and intermediate metabolites of citric acid cycle were tested separately.
For all the compounds the mixture of mediators was evaluated. After observing that the compound was reversed, each of the mediating materials was tested separately. Reversal assay test has been done for all of the amino acids like glycine, alanine, leucine, isoleucine and valine.
Row G indicates a compound B in the absence of amino acids and cells. Row H is control cell.

[2] = test system: ILV2; assay: Semi-quantitative RT-PCR expression analysis of ilv2; assay type: cell-based, Saccharomyces cerevisiae BY4741; conditions: sub-lethal dose, 4 hours treatment; actin loading control
Experimental: (§1) A semi quantitative RT-PCR analysis was used to investigate any possible effect of new antifungal compounds on the expression level of candidate gene targets.
(§2) The RNA samples were prepared by using a commercial kit i.e. RNA easy mini kit, QIAGEN, Germany. A beads cell disrupter i.e. Micro Smash™, Tomy, Japan was used during the cell lysis process. All RNA preparation steps were performed according to the manufacturer's instructions.
(§3) 1 microgram of total RNA was used in cDNA synthesis reaction. A commercial kit i.e. first strand cDNA Synthesis Kit, Fermentas, USA was used for cDNA synthesis. Total cDNA was prepared using random hexamer primer and all steps were according to the manufacturer's instructions. A typical reaction was performed as table 1 below.
(§4) RT-PCR analysis was carried out to examine the effect of new antifungal compounds on the expression level of genes involved in aliphatic amino acids biosynthesis. Three genes, ilv2, ilv3 and ilv5 were chosen for further analysis. RNA samples were isolated from the yeast cells exposed to sub-lethal or sub-inhibitory concentrations of new antifungal compounds and following a cDNA preparation. RT-PCR was performed using the gene specific primers.
(§5) RT-PCR products were visualized by electrophoresis on agarose gel and staining by ethidium bromide.
(§6) An overnight culture of yeast Saccharomyces cerevisiae BY4741 was prepared. […]

[3] = test system: ILV5; assay: Semi-quantitative RT-PCR expression analysis of ilv5; assay type: cell-based, Saccharomyces cerevisiae BY4741; conditions: sub-lethal dose, 4 hours treatment; actin loading control
Experimental: as §1, §2, §3, §4, §5, §6

[4] = test system: ILV3; assay: Semi-quantitative RT-PCR expression analysis of ilv3; assay type: cell-based, Saccharomyces cerevisiae BY4741; conditions: sub-lethal dose, 4 hours treatment; actin loading control
Experimental: as §1, §2, §3, §4, §5, §6

[5] = test system: yeast cells; assay: Minimum Inhibitory Concentration (MIC) by micro serial dilution in 96 well plate; assay type: cell-based; conditions: Saccharomyces cerevisiae, 48 hours incubation
Experimental: Two fold serial dilutions of the compounds to be tested according to the embodiments herein were prepared in 96 well plates. 40 μl of appropriate test compound dilution was added to 160 μl of culture medium and the plate was incubated at 30° C. The culture medium is Yeast Peptone Dextrose agar (YPD) containing 10^3 yeast cells. The growth of yeast cells was monitored for 24 hr and 48 hr. Fluorouracil was used as a positive control and Dimethyl sulfoxide (DMSO-control solvent) was used as negative control. The minimum concentration of the test compound A which inhibits the fungal growth was defined as MIC. MIC level is defined as the minimum concentration of the compound which prevents the growth of pathogen. […]
After providing a serial dilution in the second row, 20 μl of the wells of the second row was transformed to the wells of first row and final volume of the wells of first row was changed to 100 μl. Finally, a surrounding part of each plate was covered with parafilm and was incubated under 37 degree of centigrade. the results were read out After 24 hours and 48 hours. […]
As a result of the growth of the fungus the medium is becoming cloudy. […] For defining the MIC, as well as the sample, positive control i.e. an approved antifungal drug like fluorouracil were measured. A solution control and a negative control i.e. only the fungal suspension were measured. […]

SMILES | reversal property of the antifungal activity [1] | Expression level of ilv2, treated vs untreated cells [2] | Expression level of ilv5, treated vs untreated cells [3] | Minimum Reversal Concentration (MRC), isoleucine ([1]; isoleucine added 0-200 μg/ml, compound at constant MIC level) | Minimum Reversal Concentration (MRC), leucine ([1]; leucine added 0-200 μg/ml, compound at constant MIC level) | Minimum Reversal Concentration (MRC), valine ([1]; valine added 0-200 μg/ml, compound at constant MIC level) | Expression level of ilv3, treated vs untreated cells [4] | MIC [5]
C#CC(=O)Oc1ccc2ccc(=O)oc2c1 [compound A, 2-oxo-2H-chromen-7-yl propiolate] | lacks the reversal property |  |  |  |  |  |  | 
CCOC(=O)C#C/C=C/C(=O)OCC [compound B, diethyl-hex-2-en-4-yne-dioate] |  | unchanged | higher than that in the untreated cells | 25 µg/mL | 12.5 µg/mL | 12.5 µg/mL | unchanged | 1.5 µg/mL (≈ 7.65 µM)
